According to patent US11447500B2, “Thienopyridine derivatives and pharmaceutical composition comprising same” (WELLMARKER BIO CO., LTD., priority 2018, dated 2022):

How the values were obtained:
RON kinase = biological target: T1, RON kinase (Homo sapiens, UniProt Q04912); assay: RON kinase enzyme inhibitory activity, FRET (TR-FRET) technique; assay type: biochemical; details: 60 min reaction
T1 construct: purchased Carna Bioscience
How it was run: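 RON kinase (2× stock 0.4 nM) was preincubated 15 min with compound in HEPES pH 7.5/MgCl2 buffer, then reacted 60 min at room temperature with ATP (4× stock 60 μM) and tyrosine peptide substrate (4× stock 400 nM). The reaction was stopped with EDTA plus Eu-anti-phosphotyrosine antibody and read by TR-FRET (ex 340, em 620/665 nm). IC50 came from 665 nm emission versus concentration.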

[1] = tested on: RON-activated KM12C colon cancer cell line; assay: Cell killing efficacy, trypan blue exclusion assay, KM12C; assay type: cell-based; details: 48 hours
How it was run: (§1)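 KM12C (MEM+10% FBS) and HT-29 (RPMI+10% FBS) cells, seeded 24 h earlier, exposed to compound at 1 μM or 5 μM for 48 h after medium change. Live and dead cells counted by trypan blue exclusion (n=2); cell death rate reported relative to a reference comparative compound.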

[2] = tested on: RON-mutated (Δ160) HT-29 colon cancer cell line; assay: Cell killing efficacy, trypan blue exclusion assay, HT-29; assay type: cell-based; details: HT29 cell, 48 hours
How it was run: as §1

KM12C cells = assay: Cytotoxicity MTS assay, KM12C; assay type: cell-based; details: Homo sapiens, 72 hours
Method: (§2) In order to confirm the specific cytotoxicity of the drugs, the cultured cells were treated with 0.05% trypsin/EDTA (0.5% trypsin EDTA (10×), Product No.: 15400-054, GIBCO) to detach them from the culture dish, and 3,000 cells (KM12C) or 2,000 cells (HT29, Colo 320 HSR) were dispensed into each well.
(§3) After 24 hours, sample compounds were dissolved in DMSO (Product No.: D8418-250ML, SIGMA) to make 10 mM stock solutions. As the sample compounds, the compounds synthesized in the examples of the present invention and the compounds of the comparative examples were used.
(§4) The cells were treated with the sample compound dilutions, and cultured in a 5% CO2 incubator at 37° C. for 72 hours.
(§5) Thereafter, 20 μL of MTS solution (CellTiter™ 96 Aqueous One Solution Cell Proliferation Assay, Product No.: G3581, Promega) was dispensed into each well and mixed well, and the cells were incubated for 1 to 4 hours at 37° C. in a 5% CO2 incubator.

HT29 cells = assay: Cytotoxicity MTS assay, HT29; assay type: cell-based; details: Homo sapiens, HT-29, 72 hours
Method: as §2, §3, §4, §5

T1 sequence (Q04912 25-1400): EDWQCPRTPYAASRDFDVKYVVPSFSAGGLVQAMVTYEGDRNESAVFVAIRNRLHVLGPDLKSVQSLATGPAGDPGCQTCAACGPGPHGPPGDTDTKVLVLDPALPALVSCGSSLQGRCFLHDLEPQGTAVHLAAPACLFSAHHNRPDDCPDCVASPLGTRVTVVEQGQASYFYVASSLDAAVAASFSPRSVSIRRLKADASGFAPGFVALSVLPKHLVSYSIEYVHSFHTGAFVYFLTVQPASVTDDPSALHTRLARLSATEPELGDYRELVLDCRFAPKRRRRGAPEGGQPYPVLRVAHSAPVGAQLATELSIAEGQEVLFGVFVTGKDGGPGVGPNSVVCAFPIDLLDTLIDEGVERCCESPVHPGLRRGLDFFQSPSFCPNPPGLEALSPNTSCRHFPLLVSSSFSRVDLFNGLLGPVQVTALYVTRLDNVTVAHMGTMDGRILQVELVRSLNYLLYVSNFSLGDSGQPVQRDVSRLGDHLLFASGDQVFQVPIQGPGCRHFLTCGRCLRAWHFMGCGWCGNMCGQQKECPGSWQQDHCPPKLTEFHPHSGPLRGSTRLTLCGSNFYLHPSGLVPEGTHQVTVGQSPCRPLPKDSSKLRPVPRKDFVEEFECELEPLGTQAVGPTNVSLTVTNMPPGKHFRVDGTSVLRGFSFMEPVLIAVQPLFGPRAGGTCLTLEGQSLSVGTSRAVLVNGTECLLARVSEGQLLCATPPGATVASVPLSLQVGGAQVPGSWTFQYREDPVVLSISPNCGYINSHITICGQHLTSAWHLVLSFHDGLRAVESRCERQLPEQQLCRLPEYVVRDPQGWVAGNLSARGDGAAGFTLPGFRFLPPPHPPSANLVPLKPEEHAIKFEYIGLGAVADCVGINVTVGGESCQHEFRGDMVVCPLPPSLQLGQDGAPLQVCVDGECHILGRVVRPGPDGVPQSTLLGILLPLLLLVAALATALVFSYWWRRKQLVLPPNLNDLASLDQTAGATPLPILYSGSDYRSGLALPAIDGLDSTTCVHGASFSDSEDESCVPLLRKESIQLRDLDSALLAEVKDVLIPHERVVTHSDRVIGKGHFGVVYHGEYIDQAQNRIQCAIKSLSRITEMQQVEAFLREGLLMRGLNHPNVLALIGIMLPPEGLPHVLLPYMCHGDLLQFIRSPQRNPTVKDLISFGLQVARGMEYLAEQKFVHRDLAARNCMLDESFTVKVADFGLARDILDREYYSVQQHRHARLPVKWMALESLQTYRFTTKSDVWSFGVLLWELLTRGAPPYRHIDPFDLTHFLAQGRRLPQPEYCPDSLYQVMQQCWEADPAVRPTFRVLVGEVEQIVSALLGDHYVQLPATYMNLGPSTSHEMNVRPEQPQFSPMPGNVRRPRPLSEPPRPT

| IC50 (RON kinase) | SMILES | Cell death rate (Relative to Comp. Ex. 1) ([1]; 1 μM) | Cell death rate (Relative to Comp. Ex. 1) ([1]; 5 μM) | Cell death rate (Relative to Comp. Ex. 1) ([2]; 1 μM) | Cell death rate (Relative to Comp. Ex. 1) ([2]; 5 μM) | IC50 (KM12C cells) | IC50 (HT29 cells) |
| --- | --- | --- | --- | --- | --- | --- | --- |
| 0.23 nM | COCCNCc1ccc(-c2cc3nccc(Oc4ccc(NC(=O)c5c(C)ccn(-c6ccc(F)cc6)c5=O)cc4F)c3s2)nc1.Cl [Example 25, N-(3-fluoro-4-{[2-(5-{[(2-methoxyethyl)amino]methyl}pyridin-2-yl)thieno[3,2-b]pyridin-7-yl]oxy}phenyl)-1-(4-fluorophenyl)-4-methyl-2-oxo-1,2-dihydropyridine-3-carboxamide Hydrochloride] | x 0.44 | x 0.69 | x 3.13 | x 2.97 | 25 nM | 1380 nM |
| 0.56 nM | COCCNCc1ccc(-c2cc3nccc(Oc4ccc(NC(=O)c5c(C)ccn(-c6ccccc6)c5=O)cc4F)c3s2)nc1.Cl [Example 28, N-(3-fluoro-4-{[-2-(5-{[(2-methoxyethyl)amino]methyl}pyridin-2-yl)thieno[3,2-b]pyridin-7-yl]oxy}phenyl)-4-methyl-2-oxo-1-phenyl-1,2-dihydropyridine-3-carboxamide Hydrochloride] | x 1.22 | x 1.58 | x 1.46 | x 2.65 | 59 nM | 908 nM |
| 0.26 nM | CCOc1ccn(-c2ccc(F)cc2)c(=O)c1C(=O)Nc1ccc(Oc2ccnc3cc(-c4ccc(CN5CCN(C)CC5)cn4)sc23)c(F)c1.Cl [Example 33, 4-ethoxy-N-{3-fluoro-4-[(2-{5-[(4-methylpiperazin-1-yl)methyl]pyridin-2-yl}thieno[3,2-b]pyridin-7-yl)oxy]phenyl}-1-(4-fluorophenyl)-2-oxo-1,2-dihydropyridine-3-carboxamide Hydrochloride] | x 1.99 | x 2.13 | x 2.01 | x 1.50 | 9 nM | 335 nM |

More lines, now with the values behind:

| SMILES | IC50 (RON kinase) | Cell death rate (Relative to Comp. Ex. 1) ([1]; 1 μM) | Cell death rate (Relative to Comp. Ex. 1) ([1]; 5 μM) | Cell death rate (Relative to Comp. Ex. 1) ([2]; 1 μM) | Cell death rate (Relative to Comp. Ex. 1) ([2]; 5 μM) | IC50 (KM12C cells) | IC50 (HT29 cells) |
| --- | --- | --- | --- | --- | --- | --- | --- |
| CCOc1ccn(-c2ccc(F)cc2)c(=O)c1C(=O)Nc1ccc(Oc2ccnc3cc(-c4ccc(CN5CCOCC5)cn4)sc23)c(F)c1.Cl [Example 31, 4-ethoxy-N-[3-fluoro-4-({2-[5-(morpholinomethyl)pyridin-2-yl]thieno[3,2-b]pyridin-7-yl}oxy)phenyl]-1-(4-fluorophenyl)-2-oxo-1,2-dihydropyridine-3-carboxamide Hydrochloride] | 0.39 nM | x 1.52 | x 1.17 | x 2.11 | x 1.21 | 7 nM | 609 nM |
| CCOc1ccn(-c2ccccc2)c(=O)c1C(=O)Nc1ccc(Oc2ccnc3cc(-c4ccc(CN5CCOCC5)cn4)sc23)c(F)c1.Cl [Example 32, 4-ethoxy-N-[3-fluoro-4-({2-[5-(morpholinomethyl)pyridin-2-yl]thieno[3,2-b]pyridin-7-yl}oxy)phenyl]-2-oxo-1-phenyl-1,2-dihydropyridine-3-carboxamide Hydrochloride] | 0.81 nM | x 1.52 | x 1.11 | x 1.55 | x 1.45 | 3 nM | 325 nM |
